Test results as given in patent US6573275B1, “Bicyclic amines” (Syngenta Limited, priority 1995, dated 2003).

System: peach aphid (Myzus persicae)
Assay: Insecticidal test against peach aphid, infested Chinese cabbage leaves sprayed
Format: in vivo
Conditions: peach aphid (Myzus persicae) on Chinese cabbage leaves, sprayed with 500 ppm composition unless otherwise stated, mortality assessed after 3 days
Method: This Example illustrates the insecticidal properties of the compounds of Formula I. The activity of the compounds of Formula I was determined using a variety of pests. The pests were treated with a liquid composition containing 500 parts per million (ppm) by weight of the compound unless otherwise stated. The compositions were made by dissolving the compound in acetone and ethanol (50:50) mixture and diluting the solutions with water containing 0.05% by weight of a wetting agent sold under the trade name “SYNPERONIC” NP8 until the liquid composition contained the required concentration of the compound. “SYNPERONIC” is a Registered Trade Mark.
The test procedure adopted with regard to each pest was basically the same and comprised supporting a number of the pests on a medium which was usually a substrate, a host plant or a foodstuff on which the pests feed, and treating either or both the medium and the pests with the compositions. The mortality of the pests was then assessed at periods usually varying from two to five days after the treatment.
In this test Chinese cabbage leaves were infested with aphids, the infested leaves were sprayed with the test composition, and the mortality assessed after 3 days.

Compound | Score (grading of mortality)
COC(=O)C(C)N1C2CCC1CC(C#N)(c1cncc(Cl)c1)C2 (racemic) [Compound 212] | A (A indicates 80-100% mortality)
COc1ccc(C2(C#N)CC3CCC(C2)N3Cc2ccccc2)cc1 (single isomer, unassigned) [Compound 6] | C (C indicates less than 40% mortality)
COc1ccc(C2(C#N)CC3CCC(C2)N3Cc2ccccc2)cc1 (single isomer, unassigned) [Compound 7] | C (C indicates less than 40% mortality)
N#CC1(c2ccccc2)CC2CCC(C1)N2Cc1ccccc1 (single isomer, unassigned) [Compound 31] | C (C indicates less than 40% mortality)
N#CC1(c2ccccc2)CC2CCC(C1)N2Cc1ccccc1 (single isomer, unassigned) [Compound 32] | A (A indicates 80-100% mortality)
COC(=O)C(C)N1C2CCC1CC(C#N)(c1cncc(Cl)c1)C2 (single isomer, unassigned) [Compound 211] | A (A indicates 80-100% mortality)
COC(=O)C(C)N1C2CCC1CC(C#N)(c1cncc(Cl)c1)C2 (single isomer, unassigned) [Compound 213] | A (A indicates 80-100% mortality)
CN1C2CCC1CC(C#N)(c1cc(Cl)cc(Cl)c1)C2 (stereo not drawn) [Compound 1] | A (A indicates 80-100% mortality)
CN1C2CCC1CC(C#N)(c1cc(F)cc(F)c1)C2 (stereo not drawn) [Compound 2, exo-3-(3,5-difluorophenyl)-endo-3-cyano-8-methyl-8-azabicyclo[3.2.1]octane] | A (A indicates 80-100% mortality)
CN1C2CCC1CC(C#N)(c1cccc(F)c1F)C2 (stereo not drawn) [Compound 3] | A (A indicates 80-100% mortality)
CN1C2CCC1CC(C#N)(c1c(F)c(F)c(F)c(F)c1F)C2 (stereo not drawn) [Compound 4] | A (A indicates 80-100% mortality)
CN1C2CCC1CC(C#N)(c1cccc(Cl)c1Cl)C2 (stereo not drawn) [Compound 5] | A (A indicates 80-100% mortality)
N#CC1(c2ccccc2)CC2CCC(C1)N2Cc1ccccc1 (stereo not drawn) [Compound 8, 3-phenyl-3-cyano-8-benzyl-8-azabicyclo[3.2.1]octane] | A (A indicates 80-100% mortality)
N#CC1(c2cc(F)cc(F)c2)CC2CCC(C1)N2 (stereo not drawn) [Compound 9] | A (A indicates 80-100% mortality)
N#CC1(c2cc(F)cc(F)c2)CC2CCC(C1)N2Cc1ccccc1 (stereo not drawn) [Compound 10] | A (A indicates 80-100% mortality)
N#CC1(c2cc(F)cc(F)c2)CC2CCC(C1)N2Cc1cnc(Cl)c(Cl)c1 (stereo not drawn) [Compound 11] | A (A indicates 80-100% mortality)
N#CC1(c2cc(F)cc(F)c2)CC2CCC(C1)N2Cc1ccccn1 (stereo not drawn) [Compound 12] | A (A indicates 80-100% mortality)
Cc1cccc(CN2C3CCC2CC(C#N)(c2cc(F)cc(F)c2)C3)c1 (stereo not drawn) [Compound 13] | B (B indicates 40-79% mortality)
N#CC1(c2cc(F)cc(F)c2)CC2CCC(C1)N2Cc1ccc(Cl)cc1 (stereo not drawn) [Compound 14] | A (A indicates 80-100% mortality)
N#CC1(c2cc(F)cc(F)c2)CC2CCC(C1)N2Cc1cccnc1 (stereo not drawn) [Compound 15] | A (A indicates 80-100% mortality)
N#CC1(c2cc(F)cc(F)c2)CC2CCC(C1)N2Cc1cc(Cl)cc(Cl)c1 (stereo not drawn) [Compound 17] | C (C indicates less than 40% mortality)

Compound | Score (grading of mortality)
N#CC1(c2cc(F)cc(F)c2)CC2CCC(C1)N2CC=C(F)F (stereo not drawn) [Compound 18] | A (A indicates 80-100% mortality)
N#CC1(c2cc(F)cc(F)c2)CC2CCC(C1)N2CC(O)c1ccccc1 (stereo not drawn) [Compound 19] | C (C indicates less than 40% mortality)
N#CC1(c2cc(F)cc(F)c2)CC2CCC(C1)N2C(CO)c1ccccc1 (stereo not drawn) [Compound 20] | C (C indicates less than 40% mortality)
C=CCN1C2CCC1CC(C#N)(c1cc(F)cc(F)c1)C2 (stereo not drawn) [Compound 21] | A (A indicates 80-100% mortality)
C#CCN1C2CCC1CC(C#N)(c1cc(F)cc(F)c1)C2 (stereo not drawn) [Compound 22] | A (A indicates 80-100% mortality)
N#CC1(c2cc(F)cc(F)c2)CC2CCC(C1)N2CCF (stereo not drawn) [Compound 23] | A (A indicates 80-100% mortality)
N#CC1(c2cc(F)cc(F)c2)CC2CCC(C1)N2CCO (stereo not drawn) [Compound 24] | A (A indicates 80-100% mortality)
COCCN1C2CCC1CC(C#N)(c1cc(F)cc(F)c1)C2 (stereo not drawn) [Compound 25] | A (A indicates 80-100% mortality)
N#CCCN1C2CCC1CC(C#N)(c1cc(F)cc(F)c1)C2 (stereo not drawn) [Compound 26] | B (B indicates 40-79% mortality)
N#CC1(c2cc(F)cc(F)c2)CC2CCC(C1)N2Cc1ccc(Cl)s1 (stereo not drawn) [Compound 27] | A (A indicates 80-100% mortality)
N#CC1(c2cc(F)cc(F)c2)CC2CCC(C1)N2c1cccc(Cl)n1 (stereo not drawn) [Compound 28] | C (C indicates less than 40% mortality)
Cc1ncc(CN2C3CCC2CC(C#N)(c2cc(F)cc(F)c2)C3)s1 (stereo not drawn) [Compound 29] | B (B indicates 40-79% mortality)
COC(=N)CN1C2CCC1CC(C#N)(c1cc(F)cc(F)c1)C2 (stereo not drawn) [Compound 30] | A (A indicates 80-100% mortality)
CN1C2CCC1CC(C#N)(c1cccnc1)C2 (stereo not drawn) [Compound 33, exo-3-(pyrid-3-yl)-endo-3-cyano-8-methyl-8-azabicyclo[3.2.1]octane] | A (A indicates 80-100% mortality)
N#C[C@@]1(c2cccnc2)C[C@H]2CC[C@@H](C1)N2CCF [Compound 34, exo-3-(pyrid-3-yl)-endo-3-cyano-8-(2-fluoroethyl)-8-azabicyclo[3.2.1]octane] | A (A indicates 80-100% mortality)
C=CCN1C2CCC1CC(C#N)(c1cccnc1)C2 (stereo not drawn) [Compound 35] | A (A indicates 80-100% mortality)
N#CC1(c2cccnc2)CC2CCC(C1)N2 (stereo not drawn) [Compound 36, exo-3-(pyrid-3-yl)-endo-3-cyano-8-azabicyclo[3.2.1]octane] | A (A indicates 80-100% mortality)
N#CC1(c2cccnc2)CC2CCC(C1)N2Cc1ccccc1 (stereo not drawn) [Compound 37, exo-3-(pyrid-3-yl)-endo-3-cyano-8-benzyl-8-azabicyclo[3.2.1]octane] | A (A indicates 80-100% mortality)
CCN1C2CCC1CC(C#N)(c1cccnc1)C2 (stereo not drawn) [Compound 38] | A (A indicates 80-100% mortality)
CC(C)(C)OC(=O)CN1C2CCC1CC(C#N)(c1cccnc1)C2 (stereo not drawn) [Compound 39] | C (C indicates less than 40% mortality)
C[n+]1cccc(C2(C#N)CC3CCC(C2)N3C(=O)OC(C)(C)C)c1.[I-] (stereo not drawn) [Compound 40] | A (A indicates 80-100% mortality)
